Reference: patent US20090131503A1, “3,5 - SUBSTITUTED INDOLE COMPOUNDS HAVING NOS AND NOREPINEPHRINE REUPTAKE INHIBITORY ACTIVITY” (priority 2007, published 2009)
“Also recorded” adds a separate entry of the source. Where a name gives a salt, the structure may show the parent alone. Read-outs that look alike come from different tables or passages of the source.

Assays:
[1] = target: T1, Nitric oxide synthase (neuronal, human recombinant) nNOS (Homo sapiens, UniProt P29475); test: nNOS (human) enzyme assay, [3H]-L-arginine to L-citrulline conversion; type: biochemical
T1 construct: purchased Axxora LLC ALX-201-068
T1 sequence (P29475 whole entry): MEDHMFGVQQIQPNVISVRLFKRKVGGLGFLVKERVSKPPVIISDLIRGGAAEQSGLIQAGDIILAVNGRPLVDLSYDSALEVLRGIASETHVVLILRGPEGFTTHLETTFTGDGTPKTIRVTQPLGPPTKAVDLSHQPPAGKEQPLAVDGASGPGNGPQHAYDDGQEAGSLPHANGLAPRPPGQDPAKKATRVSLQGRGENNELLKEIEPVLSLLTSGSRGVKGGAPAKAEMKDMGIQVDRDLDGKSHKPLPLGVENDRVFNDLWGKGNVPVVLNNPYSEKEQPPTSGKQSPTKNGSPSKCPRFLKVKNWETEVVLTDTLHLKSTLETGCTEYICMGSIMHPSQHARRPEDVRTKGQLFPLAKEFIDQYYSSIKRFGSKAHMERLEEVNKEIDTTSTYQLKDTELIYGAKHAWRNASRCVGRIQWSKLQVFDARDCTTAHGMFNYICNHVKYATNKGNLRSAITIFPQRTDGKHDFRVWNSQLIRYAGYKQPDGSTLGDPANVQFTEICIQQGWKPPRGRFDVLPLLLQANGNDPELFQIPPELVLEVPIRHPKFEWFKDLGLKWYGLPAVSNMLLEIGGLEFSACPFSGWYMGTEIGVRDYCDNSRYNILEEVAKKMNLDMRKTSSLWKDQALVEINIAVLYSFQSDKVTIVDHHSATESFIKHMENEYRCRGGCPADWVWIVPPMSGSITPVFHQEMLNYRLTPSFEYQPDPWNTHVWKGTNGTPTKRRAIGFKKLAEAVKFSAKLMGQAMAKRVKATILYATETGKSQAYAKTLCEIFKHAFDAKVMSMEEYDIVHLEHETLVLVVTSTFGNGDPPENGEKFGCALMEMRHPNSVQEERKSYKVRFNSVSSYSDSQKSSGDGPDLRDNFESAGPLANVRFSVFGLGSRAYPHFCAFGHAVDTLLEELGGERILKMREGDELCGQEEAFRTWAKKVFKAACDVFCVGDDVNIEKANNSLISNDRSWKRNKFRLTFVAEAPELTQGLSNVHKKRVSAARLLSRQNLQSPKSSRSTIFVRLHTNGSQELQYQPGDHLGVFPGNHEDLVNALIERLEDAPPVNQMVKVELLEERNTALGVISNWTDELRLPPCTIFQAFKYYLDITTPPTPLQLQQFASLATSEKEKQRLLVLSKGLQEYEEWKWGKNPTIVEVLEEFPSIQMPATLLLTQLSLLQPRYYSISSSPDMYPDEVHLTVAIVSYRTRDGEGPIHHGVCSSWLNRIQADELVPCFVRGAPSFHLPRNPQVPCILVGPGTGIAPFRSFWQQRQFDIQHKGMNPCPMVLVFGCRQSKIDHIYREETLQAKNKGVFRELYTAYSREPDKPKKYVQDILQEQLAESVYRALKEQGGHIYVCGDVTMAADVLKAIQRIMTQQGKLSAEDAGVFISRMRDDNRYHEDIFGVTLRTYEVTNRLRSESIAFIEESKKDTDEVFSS
Description: (§3) Primary stock solutions of test compounds at a concentration of 6 mM are prepared. The primary stock solutions of each test compound are prepared freshly in distilled water on the day of study. […] Concentration range of test compound utilized for nNOS are 0.001 to 300 μM and for eNOS are 0.003 to 1000 μM. The vehicle of the test compound or inhibitor is used as blank control. […] The IC50 concentration of L-NAME was run in parallel as a control.
(§4) All incubations are performed in duplicate:
Total reaction volume is 60 μL.
(§5) Mix using a vortex mixer and incubate the above reaction mixture at 37° C. in an incubator for 30 mins.
(§6) Add 400 μL of ice-cold Stop Buffer at the end of the incubation period to stop the reaction. (The EDTA in the Stop Buffer chelates all of the available calcium.) Mix using a vortex mixer and transfer the reaction samples to spin cups and centrifuge using a microcentrifuge, at 13,000 rpm for 30 sec. at room temperature.
(§7) Remove the spin cups from the holder and transfer 450 μL of eluate (containing the unbound L-citrulline) to scintillation vials. Add 3 mL of scintillation fluid and quantify the radioactivity in a liquid scintillation counter.
(§8) Data is analyzed using a Sigmoidal dose-response (variable slope) curve to determine the IC50 value of the test compound.
(§9) Y=Bottom+(Top−Bottom)/(1+10̂((Log IC50−X)*Hill Slope))

[2] = target: T2, Nitric oxide synthase (endothelial, human recombinant) eNOS (Homo sapiens, UniProt P29474); test: eNOS (human) enzyme assay, [3H]-L-arginine to L-citrulline conversion; type: biochemical
T2 construct: purchased Axxora LLC ALX-201-070
T2 sequence (P29474 whole entry): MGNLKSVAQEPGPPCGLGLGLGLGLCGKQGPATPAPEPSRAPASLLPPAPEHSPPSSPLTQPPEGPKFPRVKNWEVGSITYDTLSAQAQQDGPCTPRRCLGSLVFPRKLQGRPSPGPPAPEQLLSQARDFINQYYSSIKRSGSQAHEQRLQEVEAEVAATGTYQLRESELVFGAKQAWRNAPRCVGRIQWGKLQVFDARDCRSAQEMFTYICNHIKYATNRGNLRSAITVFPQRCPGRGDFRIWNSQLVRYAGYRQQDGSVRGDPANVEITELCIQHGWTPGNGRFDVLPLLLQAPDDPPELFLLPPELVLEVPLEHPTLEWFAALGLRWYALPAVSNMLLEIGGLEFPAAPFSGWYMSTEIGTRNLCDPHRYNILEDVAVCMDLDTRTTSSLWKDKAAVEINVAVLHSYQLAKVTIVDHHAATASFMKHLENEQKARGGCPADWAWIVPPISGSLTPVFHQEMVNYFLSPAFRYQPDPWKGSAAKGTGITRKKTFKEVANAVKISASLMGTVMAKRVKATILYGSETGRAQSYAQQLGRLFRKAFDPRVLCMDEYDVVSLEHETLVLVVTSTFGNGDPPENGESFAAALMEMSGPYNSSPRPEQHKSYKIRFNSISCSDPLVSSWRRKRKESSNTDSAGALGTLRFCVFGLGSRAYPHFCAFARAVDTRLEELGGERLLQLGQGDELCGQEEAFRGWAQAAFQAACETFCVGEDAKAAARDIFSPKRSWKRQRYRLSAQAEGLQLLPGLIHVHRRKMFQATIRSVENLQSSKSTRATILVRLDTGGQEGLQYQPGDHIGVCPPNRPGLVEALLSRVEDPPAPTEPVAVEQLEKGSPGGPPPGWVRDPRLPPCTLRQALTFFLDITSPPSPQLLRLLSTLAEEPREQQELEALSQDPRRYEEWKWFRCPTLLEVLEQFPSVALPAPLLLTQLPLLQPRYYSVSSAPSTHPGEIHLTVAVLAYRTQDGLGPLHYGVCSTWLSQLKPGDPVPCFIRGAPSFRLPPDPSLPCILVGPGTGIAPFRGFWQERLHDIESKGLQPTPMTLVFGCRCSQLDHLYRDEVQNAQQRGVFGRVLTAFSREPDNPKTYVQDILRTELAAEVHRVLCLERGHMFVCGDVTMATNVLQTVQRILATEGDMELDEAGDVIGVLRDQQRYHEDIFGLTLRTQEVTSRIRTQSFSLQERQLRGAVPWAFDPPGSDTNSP
Description: as §3, §4
Total reaction volume is 60 μL.
as §5, §6, §7, §8, §9

human NET = target: T3, human NET (Homo sapiens, UniProt P23975); test: Human norepinephrine transporter assay, [3H]nisoxetine binding to cell membrane homogenates
T3 construct: expressed in transfected cells
T3 sequence (P23975 whole entry): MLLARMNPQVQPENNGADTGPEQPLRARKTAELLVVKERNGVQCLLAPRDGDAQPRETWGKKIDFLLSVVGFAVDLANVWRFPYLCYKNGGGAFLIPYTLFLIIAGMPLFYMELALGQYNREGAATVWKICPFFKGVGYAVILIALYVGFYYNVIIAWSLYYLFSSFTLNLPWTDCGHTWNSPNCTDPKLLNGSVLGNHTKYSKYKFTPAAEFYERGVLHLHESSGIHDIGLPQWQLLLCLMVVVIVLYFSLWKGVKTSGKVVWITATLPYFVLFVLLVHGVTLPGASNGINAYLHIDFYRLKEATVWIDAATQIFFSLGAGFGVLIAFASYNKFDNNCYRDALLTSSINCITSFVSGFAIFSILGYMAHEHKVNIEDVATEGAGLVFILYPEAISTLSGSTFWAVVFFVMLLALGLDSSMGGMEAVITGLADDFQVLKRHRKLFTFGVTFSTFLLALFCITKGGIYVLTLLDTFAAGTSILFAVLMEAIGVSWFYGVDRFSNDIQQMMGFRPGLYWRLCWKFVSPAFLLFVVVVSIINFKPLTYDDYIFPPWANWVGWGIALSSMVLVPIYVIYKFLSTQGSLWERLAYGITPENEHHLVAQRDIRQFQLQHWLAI
Description: Human Norepinephrine Transporter Assay
Nonspecific binding was determined in the presence of 1 μM desipramine. Following incubation, the samples were filtered rapidly under vacuum through glass fiber filters (GF/B, Packard) presoaked with 0.3% PEI, and rinsed several times with ice-cold 50 mM Tris-HCl using a 96-sample cell harvester (Unifilter, Packard). The filters were dried then counted for radioactivity in a scintillation counter (Topcount, Packard) using a scintillation cocktail (Microscint 0, Packard). The results were expressed as a percent inhibition of the control radioligand specific binding. The standard reference compound was protriptyline, which was tested in each experiment at several concentrations to obtain a competition curve from which its IC50 is calculated. Typical assay volumes were 250 μL in 96-well plate and compounds are solubilized in water.

migraine [3] = conditions: open pilot study; cited from earlier work
migraine [4] = conditions: migraine patients, single i.v. administration; cited from earlier work
[5] = test system: L5/L6 spinal nerve ligation model of neuropathic pain (Chung model); test: Chung L5/L6 spinal nerve ligation model, thermal hyperalgesia; type: in vivo, rat; conditions: rats, 30 mg/kg i.p., one dose
Description: (§1) The L5/L6 spinal nerve was surgically ligated and animals allowed to recover for a period of 7-10 days. During this period animals develop neuropathic pain. The reduction of paw withdrawal latency after an infrared thermal stimulus (post-SNL) was measured following the induction period for comparison with pre-surgery baseline levels (BL). Following drug administration, thermal hyperalgesia was measured at various time points.
(§2) (a) Chung Model of Injury-induced Neuropathic-like Pain: The experimental designs for the Chung Spinal Nerve Ligation SNL Model assay for neuropathic pain are depicted in FIGS. 1a and 1b. Nerve ligation injury was performed according to the method described by Kim and Chung (Kim and Chung, Pain 50:355-363, 1992). This technique produces signs of neuropathic dysesthesias, including tactile allodynia, thermal hyperalgesia, and guarding of the affected paw. Rats were anesthetized with halothane, and the vertebrae over the L4 to S2 region were exposed. The L5 and L6 spinal nerves were exposed, carefully isolated, and tightly ligated with 4-0 silk sutures distal to the DRG. After ensuring homeostatic stability, the wounds were sutured, and the animals allowed to recover in individual cages. Sham-operated rats were prepared in an identical fashion except that the L5/L6 spinal nerves were not ligated. […]

[6] = test system: L5/L6 spinal nerve ligation model of neuropathic pain (Chung model); test: Chung L5/L6 spinal nerve ligation model, tactile allodynia; type: in vivo, rat; conditions: rats, 30 mg/kg i.p., one dose
Description: as §1, with “tactile thresholds” for “paw withdrawal latency after an infrared thermal stimulus”, “tactile allodynia” for “thermal hyperalgesia”, “points with calibrated von-Frey filaments.” for “points.”
as §2

[7] = Table 2, compounds tested as hydrochloride salts
[8] = Table 2, compounds tested as hydrochloride salts, read-out: IC50, Human NET activity
[9] = IC50, Human NET activity, Table 2, compounds tested as hydrochloride salts

| SMILES | IC50 [1, 7] [nM] | IC50 [2, 7] [nM] | IC50 (human NET; [8]) [nM] | also measured |
| --- | --- | --- | --- | --- |
| CNC1CC=C(c2c[nH]c3ccc(NC(=N)c4cccs4)cc23)CC1 (single isomer, unassigned) [Compound 3a, N-(3-(4-(Methylamino)cyclohex-1-enyl)-1H-indol-5-yl)thiophene-2-carboximidamide] | 439 | 53400 | 1100 |  |
| CCNC1CC=C(c2c[nH]c3ccc(NC(=N)c4cccs4)cc23)CC1 (racemic) [(±)-6, N-(3-(4-(ethylamino)cyclohex-1-enyl)-1H-indol-5-yl)thiophene-2-carboximidamide] | 1420 | 40300 | 280 |  |
| CN[C@H]1CC[C@H](c2c[nH]c3ccc(NC(=N)c4cccs4)cc32)CC1 [Compound 1b, N-(3-(4-(Methylamino)cyclohexyl)-1H-indol-5-yl)thiophene-2-carboximidamide] |  |  | 2000 |  |
| CN(C)C1CCC(c2c[nH]c3ccc(NC(=N)c4cccs4)cc23)CC1 (stereo not drawn) [Compound 4, N-(3-(4-(dimethylamino)cyclohexyl)-1H-indol-5-yl)thiophene-2-carboximidamide] | 3440 | 31800 |  | IC50 (human NET; [9]): 190 nM |
| C/C1=C2/[N-][C@H]([C@H](CC(N)=O)[C@@]2(C)CCC(=O)NC[C@@H](C)OP(=O)([O-])O[C@H]2[C@@H](O)[C@@H](n3cnc4cc(C)c(C)cc43)O[C@@H]2CO)[C@]2(C)N=C(/C(C)=C3N=C(/C=C4N=C1[C@@H](CCC(N)=O)C\4(C)C)[C@@H](CCC(N)=O)[C@]\3(C)CC(N)=O)[C@@H](CCC(N)=O)[C@]2(C)CC(N)=O.[Co+3].[OH-] [hydroxycobalamin] |  |  |  | patients with a reduction in the frequency of migraine attack of 50% (migraine [3]): 53% |
| CNC1CCCC(c2c[nH]c3ccc(NC(=N)c4cccs4)cc23)C1 (single isomer, unassigned) [Compound 7b, N-(3-(3-(Methylamino)cyclohexyl)-1H-indol-5-yl)thiophene-2-carboximidamide dihydrochloride [(−)-cis-enantiomer]] |  |  |  | IC50 ([2]; Table 3): 75000 nM; IC50 (human NET; IC50, Human NET, Table 3): 5200 nM |
| CNC1CCC(c2c[nH]c3ccc(NC(=N)c4cccs4)cc23)CC1 (mixture of isomers) [Compound 1, N-(3-(4-(methylamino)cyclohexyl)-1H-indol-5-yl)thiophene-2-carboximidamide] |  |  | 520 |  |
| CNC1CC=C(c2c[nH]c3ccc(NC(=N)c4cccs4)cc23)CC1 (single isomer, unassigned) [Compound 3b, N-(3-(4-(Methylamino)cyclohex-1-enyl)-1H-indol-5-yl)thiophene-2-carboximidamide] | 537 | 40900 | 1100 |  |
| CNC1CC=C(c2c[nH]c3ccc(NC(=N)c4cccs4)cc23)CC1 (racemic) [(±)-3, N-(3-(4-(methylamino)cyclohex-1-enyl)-1H-indol-5-yl)thiophene-2-carboximidamide] | 1730 | 32000 | 1300 |  |
| CN(C)C1CC=C(c2c[nH]c3ccc(NC(=N)c4cccs4)cc23)CC1 (single isomer, unassigned) [Compound 2a, N-(3-(4-(Dimethylamino)cyclohex-1-enyl)-1H-indol-5-yl)thiophene-2-carboximidamide] | 865 | 47100 |  | IC50 (human NET; [9]): 1100 nM |
| CN[C@H]1CC[C@@H](c2c[nH]c3ccc(NC(=N)c4cccs4)cc32)CC1 [Compound 1a, N-(3-(4-(Methylamino)cyclohexyl)-1H-indol-5-yl)thiophene-2-carboximidamide] |  |  | 400 |  |
| CCNC1CCCC(c2c[nH]c3ccc(NC(=N)c4cccs4)cc23)C1 (racemic) [(±)-9, N-(3-(3-(ethylamino)cyclohexyl)-1H-indol-5-yl)thiophene-2-carboximidamide] |  |  |  | IC50 (human NET; IC50, Human NET, Table 3): 760 nM |
| CCNC1CCC(c2c[nH]c3ccc(NC(=N)c4cccs4)cc23)C1 (mixture of isomers) [Compound 11, N-(3-(3-(ethylamino)cyclopentyl)-1H-indol-5-yl)thiophene-2-carboximidamide] |  |  |  | IC50 ([1]; Table 3): 257 nM; IC50 ([2]; Table 3): 14300 nM |
| CCNC1CCC(c2c[nH]c3ccc(NC(=N)c4cccs4)cc23)CC1 (mixture of isomers) [Compound 5, N-(3-(4-(ethylamino)cyclohexyl)-1H-indol-5-yl)thiophene-2-carboximidamide] |  |  | 270 |  |
| CN(C)C1CC=C(c2c[nH]c3ccc(NC(=N)c4cccs4)cc23)CC1 (racemic) [(±)-2, N-(3-(4-(dimethylamino)cyclohex-1-enyl)-1H-indol-5-yl)thiophene-2-carboximidamide] | 3000 | 51400 |  | IC50 (human NET; [9]): 550 nM |
| CNC(=N)NCCC[C@H](N)C(=O)O [L-NMMA, N^G-monomethyl-L-arginine] |  |  |  | response rate (migraine [4]): 67% |
| CCNC1CCCC(c2c[nH]c3ccc(NC(=N)c4cccs4)cc23)C1 (racemic) [(±)-10, N-(3-(3-(ethylamino)cyclohexyl)-1H-indol-5-yl)thiophene-2-carboximidamide] |  |  |  | IC50 (human NET; IC50, Human NET, Table 3): 1700 nM |
| CNC1CCCC(c2c[nH]c3ccc(NC(=N)c4cccs4)cc23)C1 (single isomer, unassigned) [(±)-7, N-(3-(-3-(Methylamino)cyclohexyl)-1H-indol-5-yl)thiophene-2-carboximidamide] |  |  |  | IC50 ([2]; Table 3): 77600 nM; IC50 (human NET; IC50, Human NET, Table 3): 2500 nM |
| CCN[C@H]1CC[C@@H](c2c[nH]c3ccc(NC(=N)c4cccs4)cc32)CC1 (single isomer, unassigned) [Compound 5b, cis-N-(3-(4-(Ethylamino)cyclohexyl)-1H-indol-5-yl) thiophene-2-carboximidamide] |  |  | 380 |  |
| CNC1CCCC(c2c[nH]c3ccc(NC(=N)c4cccs4)cc23)C1 (single isomer, unassigned) [Compound 7a, N-(3-(3-(Methylamino)cyclohexyl)-1H-indol-5-yl)thiophene-2-carboximidamide dihydrochloride [(+)-cis-enantiomer]] |  |  |  | reversal of thermal hyperalgesia (antihyperalgesic effect) [5]: clear antihyperalgesic effect; reversal of thermal hyperalgesia (antihyperalgesic effect) ([5]; listed as (+)−7a): reversal of thermal hyperalgesia; IC50 ([2]; Table 3): 49300 nM; reversal of tactile allodynia (antiallodynic effect) [6]: reversal of tactile hyperthesia; also recorded: pronounced antiallodynic effect; reversal of tactile allodynia (antiallodynic effect) ([6]; listed as (+)−7a): reversal of tactile allodynia; IC50 (human NET; IC50, Human NET, Table 3): 1000 nM |
| CN(C)C1CC=C(c2c[nH]c3ccc(NC(=N)c4cccs4)cc23)CC1 (single isomer, unassigned) [Compound 2b, N-(3-(4-(Dimethylamino)cyclohex-1-enyl)-1H-indol-5-yl)thiophene-2-carboximidamide] | 839 | 96000 |  | IC50 (human NET; [9]): 960 nM |
| CCN[C@H]1CC[C@H](c2c[nH]c3ccc(NC(=N)c4cccs4)cc32)CC1 (single isomer, unassigned) [Compound 5a, trans-N-(3-(4-(Ethylamino)cyclohexyl)-1H-indol-5-yl)thiophene-2-carboximidamide] |  |  | 2800 |  |
| CNC1CCCC(c2c[nH]c3ccc(NC(=N)c4cccs4)cc23)C1 (racemic) [(±)-8, N-(3-(3-(methylamino)cyclohexyl)-1H-indol-5-yl)thiophene-2-carboximidamide] |  |  |  | IC50 ([2]; Table 3): 7760 nM; IC50 (human NET; IC50, Human NET, Table 3): 880 nM |
